US20090175795A1, “CHIMERIC THERAPEUTIC AGENTS” (Amprotein Corporation, priority 2005, published 2009)

Legend:
blood glucose [1] = assay: GTT assay in rabbits; format: in vivo, rabbit; conditions: small numbers
Procedure: (§1) Similarly GTT assays were also conducted in rats and rabbits in small numbers. All the results support the inhibition of GLP1-Fc-leptin on blood glucose level.

blood glucose [2] = assay: intraperitoneal glucose tolerance test (ip GTT) in mice; format: in vivo, mouse; design: Blood glucose (X ± SD): unit not given here; conditions: for effect on blood glucose levels in ip GTT: P<0.05
Procedure: (§2) First, intraperitoneal glucose tolerance test (ip GTT) was conducted to test GLP -Fc-leptin's action on glucose-dependent insulin secretion. Briefly, mouse blood glucose was measured using one-touch blood glucose strips. A blood sample was obtained from a mouse through tail bleeding. Then, 0.04, 0.1, or 0.2 mg of GLP1-Fc-leptin or control protein human IgG1 Fc fragment were injected ip. Immediately after the injections, 0.2 ml of saturated glucose water solution was injected ip into the mouse. One and two hours later, another blood sample was collected in the same manner for glucose measurement.

blood glucose [3] = assay: GTT assay in rats; format: in vivo, rat; conditions: small numbers
Procedure: as §1

blood glucose [4] = assay: everyday blood glucose level during the 7-day injection period; format: in vivo, mouse; conditions: 0.1 mg daily; for Glucose: one hour after injection, n = 5
Procedure: In the above experiments, during the 7-day period, blood glucose levels of each mouse were measured and recorded on each day one hour after injection of GLP1-Fc-leptin (0.1 mg) or IgG1 Fc fragment everyday in the morning.

[5] = effect on body weight, 7-day ip injection; format: in vivo, mouse; conditions: for Body weight (X ± SD): n = 5, in g (unit assumed)
Procedure: The effects of GLP1-Fc-leptin on body weight were studied. Mice were injected with 0.1 mg of GLP1-Fc-leptin or human IgG1 Fc fragment in the same manner described above daily for seven days. At days 1 and 7, the body weight of each […] was measured and recorded. […] The body weight was measured on days 1, 4, and 7. Effects of leptin on body weight were studied in the same manner described above. More specifically, mice were injected ip. with 0.1 mg/mouse of human recombinant leptin (R&D Systems, Cat# 398-LP) or human IgG Fc twice a day (9 am and 5 pm) for 7 days.

blood glucose [6] = assay: IP glucose tolerance test repeated at day-1 and day-2 after one injection (long-term effect); format: in vivo, mouse; conditions: for Blood glucose (X ± SD): one injection 0.2 mg, n = 5
Procedure: as §2, with “measurement. […] The results are summarized in Tables 1-4 below: The above experiment was repeated with GLP1-Fc-leptin (0.2 mg) at day-1 before the glucose tolerance test. A IP glucose tolerance test was conducted twice at day-1 and day-2 respectively.” for “measurement.”

GLP1-Fc-leptin: fusion protein GLP-1-3xGly-IgG1 Fc-leptin (SEQ ID NO:5), expressed in CHO cells
effect on blood glucose level in GTT (blood glucose [1]): inhibition | Blood glucose (X ± SD) (blood glucose [2]; 0.04 mg ip, 1 hour after IP glucose injection, n = 5): 275.8 ± 154.0 | Blood glucose (X ± SD) (blood glucose [2]; 0.04 mg ip, 2 hour after IP glucose injection, n = 5): 98.0 ± 22.7 | Blood glucose (X ± SD) (blood glucose [2]; 0.04 mg ip, before IP glucose injection, n = 5): 98.8 ± 29.2 | Blood glucose (X ± SD) (blood glucose [2]; 0.1 mg ip, 1 hour after IP glucose injection, n = 4): 108.8 ± 44.0 | Blood glucose (X ± SD) (blood glucose [2]; 0.1 mg ip, 2 hour after IP glucose injection, n = 4): 83.0 ± 21.6 | Blood glucose (X ± SD) (blood glucose [2]; 0.1 mg ip, before IP glucose injection, n = 4): 67.3 ± 32.1 | effect on blood glucose levels in ip GTT (blood glucose [2]; 0.1 mg): significantly inhibited | Blood glucose (X ± SD) (blood glucose [2]; 0.2 mg ip, 1 hour after IP glucose injection, n = 5): 113.0 ± 16.2 | Blood glucose (X ± SD) (blood glucose [2]; 0.2 mg ip, 2 hour after IP glucose injection, n = 5): 82.0 ± 6.2 | Blood glucose (X ± SD) (blood glucose [2]; 0.2 mg ip, before IP glucose injection, n = 5): 84.4 ± 20.5 | effect on blood glucose levels in ip GTT (blood glucose [2]; 0.2 mg): significantly inhibited | effect on blood glucose level in GTT (blood glucose [3]): inhibition | everyday blood glucose levels versus IgG1 Fc fragment (blood glucose [4]; 7-day period): lower blood glucose levels | Glucose (blood glucose [4]; day 1): 98.0 ± 13.2 mg/dL | Glucose (blood glucose [4]; day 2): 119.0 ± 25.8 mg/dL | Glucose (blood glucose [4]; day 3): 91.4 ± 44.6 mg/dL | Glucose (blood glucose [4]; day 4): 116.0 ± 34.3 mg/dL | Glucose (blood glucose [4]; day 5): 95.6 ± 33.9 mg/dL | Glucose (blood glucose [4]; day 6): 102.3 ± 25.7 mg/dL | Glucose (blood glucose [4]; day 7): 160.4 ± 18.6 mg/dL | body weight lost ([5]; 0.1 mg daily for seven days, at day 7, p<0.05): 11.3% | Body weight (X ± SD) ([5]; 0.1 mg ip daily for seven days, day 1): 24.7 ± 1.3 | Body weight (X ± SD) ([5]; 0.1 mg ip daily for seven days, day 4): 23.7 ± 2.2 | Body weight (X ± SD) ([5]; 0.1 mg ip daily for seven days, day 7): 21.9 ± 1.4 | Blood glucose (X ± SD) (blood glucose [6]; Day-1 GTT, 1 hour after IP glucose injection): 113.0 ± 16.2 | Blood glucose (X ± SD) (blood glucose [6]; Day-1 GTT, 2 hour after IP glucose injection): 82.0 ± 6.2 | Blood glucose (X ± SD) (blood glucose [6]; Day-1 GTT, before IP glucose injection): 84.4 ± 20.5 | Blood glucose (X ± SD) (blood glucose [6]; Day-2 GTT, 1 hour after IP glucose injection): 106.2 ± 25.7 | Blood glucose (X ± SD) (blood glucose [6]; Day-2 GTT, 2 hour after IP glucose injection): 95.8 ± 21.1 | Blood glucose (X ± SD) (blood glucose [6]; Day-2 GTT, before IP glucose injection): 92.6 ± 25.3 | duration of inhibition of blood glucose level (blood glucose [6]; one injection of 0.2 mg): at least two

Human leptin: human recombinant leptin (R&D Systems, Cat# 398-LP)
weight loss relative to GLP1-Fc-Leptin ([5]; 0.1 mg/mouse ip twice a day for 7 days): less than half of the weight loss that GLP1-Fc-Leptin induced | Body weight (X ± SD) ([5]; leptin study, 0.1 mg/mouse ip twice a day for 7 days, day 1): 20.9 ± 2.0 | Body weight (X ± SD) ([5]; leptin study, 0.1 mg/mouse ip twice a day for 7 days, day 4): 20.7 ± 2.3 | Body weight (X ± SD) ([5]; leptin study, 0.1 mg/mouse ip twice a day for 7 days, day 7): 20.1 ± 2.1 | weight loss when used alone ([5]; our animal model, pilot experiments, used alone): did not induce significant weight loss
